pIC50: −log10 of the molar value. Ends that are not written are not given here.

We go through 2 substances from patent publication US4661471A, “Method of inhibiting and inducing human platelet aggregation” (New England Deaconess Hospital, priority 1984, dated 1987).

The test system of experiment [1] is fibrinogen binding to Human platelets. In words: Inhibition of 125I-fibrinogen binding to ADP-treated human platelets. As to conditions: 10^8 platelets/0.5 ml treated with 5-10 micromoles of ADP; 125I-labelled fibrinogen; read-out: IC50 or 50% inhibition of fibrinogen binding. The procedure:
The following experiment illustrates that the peptides of the invention can inhibit fibrinogen binding to platelets. Human platelets at a concentration of 10^8 cells/0.5 ml were treated with 5-10 micromoles of ADP. Various concentrations of the inhibitory peptides were mixed with the platelets and then […] ^125 I-labelled fibrinogen was added to the solution. The IC50 or 50% inhibition of fibrinogen binding was determined for each peptide by allowing the reaction to proceed to a conclusion, separating the platelets from unbound ^125 I-fibrinogen and determining the amount of labelled fibrinogen bound to the platelets. The less labelled fibrinogen bound to the platelets, the better the inhibition.

In experiment [2] the test system is human platelets. In words: Aggregation of ADP-treated platelets separated from plasma proteins by the synthetic peptide-albumin conjugate, in the absence of fibrinogen. The format is cell-based. The conditions noted are these: peptide added to the platelets prior to the conjugate. As for the experimental part: Ten micromoles of ADP was added to 10^8 platelets which had been separated from the plasma proteins.

Experiment [3] deals with human platelets. The experiment can be described thus: Inhibition of ADP-induced fibrinogen (gamma chain multimer) cross-linked aggregation of platelets, light transmission. As to conditions: 10^8 platelets treated with 5-10 micromoles of ADP; 7 micromoles of gamma chain fibrinogen multimers. The format is cell-based. Also noted: dose or concentration left out as unconfirmed. The procedure:
The sole figure of the drawing illustrates the inhibition of ADP-induced fibrinogen dependent platelet aggregation caused by incubation with various peptides of the invention.
A 60 µM concentration of a variety of synthetic peptides of the invention was added to 10^8 platelets which had been treated with 5-10 micromoles of ADP. At time zero, 7 micromoles of gamma chain fibrinogen multimers was added and the transmission of the solution was monitored for platelet aggregate formation. FIG. 1 illustrates the results of this experiment. […] While gamma chain multimers were used, similar results have been obtained with bivalent fibrinogen molecules.

Regarding “Cys-Tyr-Gly-Gln-Gln-His-His-Leu-Gly-Gly-Ala-Lys-Gln-Ala-Gly-Asp-Val-COOH (CYGQQHHLGGAKQAGDV-OH) [heptadecapeptide]”, the pIC50 in experiment [1] is 4.55.

Regarding HHLGGAKQAGDV [dodecapeptide], the “inhibition of aggregation induced by the synthetic peptide-albumin conjugate” value in the experiment with human platelets [2] is listed as “the aggregation reaction is inhibited”. Also, the pIC50 in experiment [1] is 4.55. For the same substance, the “inhibition of the aggregation reaction (transmission)” value in the experiment on human platelets [3] is on record as “almost complete inhibition”.

For orientation: pIC50 means −log10 of the IC50, conventionally taken in molar units.
